Reference: patent US9486461B2, “Methods and compositions for inducing apoptosis by stimulating ER stress” (UNIVERSITY OF SOUTHERN CALIFORNIA, priority 2007, dated 2016)
Entries after “also recorded” stand apart in the source; their conditions may differ.

How the values were obtained:
[1] = tested on: cytoplasmic calcium levels in U251 cells; test: Cytoplasmic calcium imaging (Fura-2/AM); assay type: cell-based, human; conditions: for elevation of cytoplasmic calcium levels: 100 μmol/L of each drug, Fura-2/AM loaded cells
Procedure: (A) U251 cells were treated with DMC or various coxibs and NSAIDs, and changes in intracellular calcium levels were recorded as described in Materials & Methods. […] Arrows indicate timepoint of drug addition. […] Essentially similar results were also obtained with the LN229 cell line.
The cells were loaded by incubating them with […] Fura-2/AM (Invitrogen) for 30 min at room temperature in external solution containing 138 mmol/L NaCl, 5.6 mmol/L KCl, 1.2 mmol/L MgCl2, 2.6 mmol/L CaCl2, 10 mmol/L HEPES, and 4 mmol/L glucose (pH 7.4). After loading, the cells were rinsed and transferred to the imaging setup. The cells were treated with individual drugs for 10 s, whereas fluorescence was elicited with the excitation wavelength alternating between 350 and 380 nm, using a Polychromator V (TILL Photonics GmbH, Grafelfing, Germany) to provide illumination via a Zeiss Axiovert 100 microscope with a Zeiss Fluar 40 oil objective (Carl Zeiss, Jena, Germany). Images were captured using a Cascade 512B CCD camera (Photometrics, Tucson, Ariz.) controlled with MetaFluor software (Molecular Devices, Sunnyvale, Calif.) at 0.5 Hz acquisition frequency. Ratios of the images obtained at 350 and 380 nm excitation were used to show changes in the cytoplasmic calcium concentration, according to the principles developed by Grynkiewicz et al. (31).

U251 glioblastoma cells [2] = test: MTT assay, U251; assay type: cell-based, human; conditions: for IC50: Homo sapiens, U-251, U251, 48 h, MTT, read-out: IC50 (50% inhibition of cell growth)
Procedure: U251 glioblastoma cells were treated with different drugs, and various parameters of cell growth and cell death were comparatively analyzed. As controls, cells remained either non-treated (Co) or were treated with the solvent DMSO alone. (FIG. 8A) Cells were treated with 30 or 50 μM DMC for 48 hours and the effects on cell growth/survival and on cell death were determined by various assays. […] Below the three panels, the expression levels of the ER stress indicators CHOP, GRP78, and caspase 4 at the end of the 48 hour drug treatment is shown, as determined by Western blot analysis with specific antibodies (actin served as a loading control. (FIG. 8B) Cells were treated with various concentrations of different drugs for 48 hours, as indicated, and cell death was measured with the cell death ELISA kit. (FIG. 8C) Cells were treated with DMC or various coxibs and traditional NSAIDs for 48 hours, as indicated, and cell growth and survival was determined with the conventional MTT assay (control, non-treated cells were set at 100%). MTT assays were performed in 96-well plates with the use of 3.0-8.0×10^3 cells per well as described in detail elsewhere (34). In parallel, the expression levels of CHOP and GRP78 protein were determined by Western blot analysis. […]
(§1) 3-(4,5-Dimethylthiazol-2-yl)-2,5-diphenyltetrazolium bromide (MTT) assays were performed in 96-well plates with the use of 3.0×10^3 to 8.0×10^3 cells per well as described in detail elsewhere (19).

[3] = tested on: T98G glioblastoma cell line; test: MTT assay, T98G; assay type: cell-based; conditions: Homo sapiens, 48 h, read-out: IC50 (50% inhibition of cell growth)
Procedure: For comparison purposes to the known anti-multiple myeloma effects of bortezomib, the RPMI/8226 multiple myeloma cell line was included in (A).
as §1

purified COX-2 protein = molecular target: T1, purified COX-2 protein (Homo sapiens, UniProt P35354); test: COX-2 inhibition in vitro with purified COX-2 protein; assay type: biochemical
T1 sequence (P35354 18-604): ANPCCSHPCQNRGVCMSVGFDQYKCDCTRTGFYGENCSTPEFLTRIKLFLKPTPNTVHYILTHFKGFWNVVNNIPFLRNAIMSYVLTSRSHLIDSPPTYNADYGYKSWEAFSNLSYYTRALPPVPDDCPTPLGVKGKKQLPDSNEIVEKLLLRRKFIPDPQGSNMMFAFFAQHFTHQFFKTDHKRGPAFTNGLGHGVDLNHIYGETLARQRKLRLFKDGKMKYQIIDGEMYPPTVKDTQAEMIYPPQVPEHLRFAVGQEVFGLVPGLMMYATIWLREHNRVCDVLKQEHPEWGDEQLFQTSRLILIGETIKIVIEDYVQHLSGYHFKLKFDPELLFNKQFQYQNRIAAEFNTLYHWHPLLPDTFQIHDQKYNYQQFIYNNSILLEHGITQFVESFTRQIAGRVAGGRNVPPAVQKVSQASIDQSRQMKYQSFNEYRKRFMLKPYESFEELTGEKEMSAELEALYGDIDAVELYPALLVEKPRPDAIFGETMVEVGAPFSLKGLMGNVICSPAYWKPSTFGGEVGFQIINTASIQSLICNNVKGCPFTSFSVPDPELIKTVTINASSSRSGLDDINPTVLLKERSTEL
Procedure: Bortezomib was obtained from the pharmacy as 3.5 mg Velcade suspended in 3.5 mL saline (Millennium Pharmaceuticals).

U251 glioblastoma cells [4] = test: Colony forming assay, U251; assay type: cell-based, human; conditions: U251, 30 and 50 μmol/L, 48 hours
Procedure: U251 glioblastoma cells were treated with different drugs, and various parameters of cell growth and cell death were comparatively analyzed. As controls, cells remained either non-treated (Co) or were treated with the solvent DMSO alone. (FIG. 8A) Cells were treated with 30 or 50 μM DMC for 48 hours and the effects on cell growth/survival and on cell death were determined by various assays. […] Below the three panels, the expression levels of the ER stress indicators CHOP, GRP78, and caspase 4 at the end of the 48 hour drug treatment is shown, as determined by Western blot analysis with specific antibodies (actin served as a loading control. (FIG. 8B) Cells were treated with various concentrations of different drugs for 48 hours, as indicated, and cell death was measured with the cell death ELISA kit. (FIG. 8C) Cells were treated with DMC or various coxibs and traditional NSAIDs for 48 hours, as indicated, and cell growth and survival was determined with the conventional MTT assay (control, non-treated cells were set at 100%). […] In parallel, the expression levels of CHOP and GRP78 protein were determined by Western blot analysis.
Twenty-four hours after transfection with small interfering RNA (siRNA), the cells were seeded into six-well plates at 200 cells per well. […] Colonies were visualized by staining for 4 h with 1% methylene blue (in methanol) and then counted.

[5] = tested on: CHOP protein in U87 glioblastoma tumor tissue; conditions: shown previously (ref. 39); cited from earlier work
U87 glioblastoma tumors = test: TUNEL assay of xenograft tumor tissue

| SMILES | elevation of cytoplasmic calcium levels [1] | IC50 (U251 glioblastoma cells [2]) [µM] | detectable effect on cell growth and survival (MTT) (U251 glioblastoma cells [2]; U251, 48 hours, concentrations of up to 100 μmol/L) | IC50 [3] [µM] | COX-2-inhibitory activity (purified COX-2 protein) | average maximum calcium peak compared with celecoxib ([1]; 100 μmol/L, difference not statistically significant) | survival in colony-forming assays (U251 glioblastoma cells [4]) | cellular activity in MTT assays (U251 glioblastoma cells [2]; U251, 30 and 50 μmol/L, 48 hours) | dosage at which ER stress in tumor tissue in vivo begins to appear [5] [mg/kg] | TUNEL staining of tumor tissue (U87 glioblastoma tumors; U87MG xenograft, 1 mg/kg BZM and 7.5 mg/kg DMC individually or in combination, 50 h) | apoptosis in the tumor tissue (U87 glioblastoma tumors; U87 xenograft, short-term drug treatment) |
| --- | --- | --- | --- | --- | --- | --- | --- | --- | --- | --- | --- |
| Cc1ccc(-c2cc(C(F)(F)F)nn2-c2ccc(S(N)(=O)=O)cc2)cc1 [celecoxib, 4-[5-(4-methylphenyl)-3-(trifluoromethyl)-1H-pyrazol-1-yl]benzenesulfonamide] | pronounced calcium spike | ~50 | reduced the viability of the cell culture | ~50 | – | – | – | – | – | – | – |
| Cc1ccc(C)c(-c2cc(C(F)(F)F)nn2-c2ccc(S(N)(=O)=O)cc2)c1 [DMC, 4-[5-(2,5-dimethylphenyl)-3-(trifluoromethyl)-1H-pyrazol-1-yl]benzenesulfonamide] | pronounced calcium spike | < 40 | – | < 40 | lacks the ability to inhibit COX-2; also recorded: lack thereof | somewhat greater | greatly reduced survival | reduced cellular activity | > 10 | nor did it substantially increase TUNEL staining | significantly increased apoptosis |
